Test results: BigSolDB 2.1

SMILES: CC(C)(N)C(=O)O
- solubility (mole fraction) (in 2-butanone, 283.15 K): 0.000215
- solubility (mole fraction) (in 2-butanone, 288.15 K): 0.000258
- solubility (mole fraction) (in 2-butanone, 293.15 K): 0.000319
- solubility (mole fraction) (in 2-butanone, 298.15 K): 0.000415
- solubility (mole fraction) (in 2-butanone, 303.15 K): 0.000507
- solubility (mole fraction) (in 2-butanone, 308.15 K): 0.000599
- solubility (mole fraction) (in 2-butanone, 313.15 K): 0.00068
- solubility (mole fraction) (in 2-butanone, 318.15 K): 0.000803
- solubility (mole fraction) (in 2-butanone, 323.15 K): 0.000946
- solubility (mole fraction) (in DMF, 283.15 K): 5.8e-05
- solubility (mole fraction) (in DMF, 288.15 K): 0.00019
- solubility (mole fraction) (in DMF, 293.15 K): 0.000365
- solubility (mole fraction) (in DMF, 298.15 K): 0.00067
- solubility (mole fraction) (in DMF, 303.15 K): 0.00102
- solubility (mole fraction) (in DMF, 308.15 K): 0.00163
- solubility (mole fraction) (in DMF, 313.15 K): 0.00245
- solubility (mole fraction) (in DMF, 318.15 K): 0.00356
- solubility (mole fraction) (in DMF, 323.15 K): 0.00462
- solubility (mole fraction) (in acetone, 283.15 K): 6e-05
- solubility (mole fraction) (in acetone, 288.15 K): 9.7e-05
- solubility (mole fraction) (in acetone, 293.15 K): 0.00016
- solubility (mole fraction) (in acetone, 298.15 K): 0.000211
- solubility (mole fraction) (in acetone, 303.15 K): 0.000253
- solubility (mole fraction) (in acetone, 308.15 K): 0.000319
- solubility (mole fraction) (in acetone, 313.15 K): 0.000386
- solubility (mole fraction) (in acetone, 318.15 K): 0.000442
- solubility (mole fraction) (in acetone, 323.15 K): 0.000501
- solubility (mole fraction) (in acetonitrile, 283.15 K): 0.000123
- solubility (mole fraction) (in acetonitrile, 288.15 K): 0.00014
- solubility (mole fraction) (in acetonitrile, 293.15 K): 0.000163
- solubility (mole fraction) (in acetonitrile, 298.15 K): 0.000189
- solubility (mole fraction) (in acetonitrile, 303.15 K): 0.000218
- solubility (mole fraction) (in acetonitrile, 308.15 K): 0.00024
- solubility (mole fraction) (in acetonitrile, 313.15 K): 0.000277
- solubility (mole fraction) (in acetonitrile, 318.15 K): 0.000317
- solubility (mole fraction) (in acetonitrile, 323.15 K): 0.000366
- solubility (mole fraction) (in ethanol, 283.15 K): 0.000102
- solubility (mole fraction) (in ethanol, 288.15 K): 0.000183
- solubility (mole fraction) (in ethanol, 293.15 K): 0.000277
- solubility (mole fraction) (in ethanol, 298.15 K): 0.000376
- solubility (mole fraction) (in ethanol, 303.15 K): 0.000479
- solubility (mole fraction) (in ethanol, 308.15 K): 0.000579
- solubility (mole fraction) (in ethanol, 313.15 K): 0.000669
- solubility (mole fraction) (in ethanol, 318.15 K): 0.000763
- solubility (mole fraction) (in ethanol, 323.15 K): 0.000879
- solubility (mole fraction) (in ethyl acetate, 283.15 K): 0.000164
- solubility (mole fraction) (in ethyl acetate, 288.15 K): 0.000246
- solubility (mole fraction) (in ethyl acetate, 293.15 K): 0.000353
- solubility (mole fraction) (in ethyl acetate, 298.15 K): 0.000507
- solubility (mole fraction) (in ethyl acetate, 303.15 K): 0.000635
- solubility (mole fraction) (in ethyl acetate, 308.15 K): 0.000808
- solubility (mole fraction) (in ethyl acetate, 313.15 K): 0.000949
- solubility (mole fraction) (in ethyl acetate, 318.15 K): 0.00111
- solubility (mole fraction) (in ethyl acetate, 323.15 K): 0.00137
- solubility (mole fraction) (in isopropanol, 283.15 K): 0.000157
- solubility (mole fraction) (in isopropanol, 288.15 K): 0.000176
- solubility (mole fraction) (in isopropanol, 293.15 K): 0.000198
- solubility (mole fraction) (in isopropanol, 298.15 K): 0.000227
- solubility (mole fraction) (in isopropanol, 303.15 K): 0.000275
- solubility (mole fraction) (in isopropanol, 308.15 K): 0.000336
- solubility (mole fraction) (in isopropanol, 313.15 K): 0.000396
- solubility (mole fraction) (in isopropanol, 318.15 K): 0.000466
- solubility (mole fraction) (in isopropanol, 323.15 K): 0.000576
- solubility (mole fraction) (in methanol, 283.15 K): 0.000625
- solubility (mole fraction) (in methanol, 288.15 K): 0.000658
- solubility (mole fraction) (in methanol, 293.15 K): 0.000715
- solubility (mole fraction) (in methanol, 298.15 K): 0.000792
- solubility (mole fraction) (in methanol, 303.15 K): 0.000878
- solubility (mole fraction) (in methanol, 308.15 K): 0.000947
- solubility (mole fraction) (in methanol, 313.15 K): 0.00106
- solubility (mole fraction) (in methanol, 318.15 K): 0.00117
- solubility (mole fraction) (in methanol, 323.15 K): 0.0013
- solubility (mole fraction) (in methyl acetate, 283.15 K): 6.8e-05
- solubility (mole fraction) (in methyl acetate, 288.15 K): 0.000102
- solubility (mole fraction) (in methyl acetate, 293.15 K): 0.00013
- solubility (mole fraction) (in methyl acetate, 298.15 K): 0.000168
- solubility (mole fraction) (in methyl acetate, 303.15 K): 0.00021
- solubility (mole fraction) (in methyl acetate, 308.15 K): 0.000248
- solubility (mole fraction) (in methyl acetate, 313.15 K): 0.000306
- solubility (mole fraction) (in methyl acetate, 318.15 K): 0.000364
- solubility (mole fraction) (in methyl acetate, 323.15 K): 0.000436
- solubility (mole fraction) (in n-butanol, 283.15 K): 0.000158
- solubility (mole fraction) (in n-butanol, 288.15 K): 0.000219
- solubility (mole fraction) (in n-butanol, 293.15 K): 0.00027
- solubility (mole fraction) (in n-butanol, 298.15 K): 0.000334
- solubility (mole fraction) (in n-butanol, 303.15 K): 0.00043
- solubility (mole fraction) (in n-butanol, 308.15 K): 0.000518
- solubility (mole fraction) (in n-butanol, 313.15 K): 0.00065
- solubility (mole fraction) (in n-butanol, 318.15 K): 0.000783
- solubility (mole fraction) (in n-butanol, 323.15 K): 0.000963
- solubility (mole fraction) (in n-pentanol, 283.15 K): 0.0002
- solubility (mole fraction) (in n-pentanol, 288.15 K): 0.000248
- solubility (mole fraction) (in n-pentanol, 293.15 K): 0.000302
- solubility (mole fraction) (in n-pentanol, 298.15 K): 0.000369
- solubility (mole fraction) (in n-pentanol, 303.15 K): 0.000448
- solubility (mole fraction) (in n-pentanol, 308.15 K): 0.000523
- solubility (mole fraction) (in n-pentanol, 313.15 K): 0.000616
- solubility (mole fraction) (in n-pentanol, 318.15 K): 0.000721
- solubility (mole fraction) (in n-pentanol, 323.15 K): 0.000843
- solubility (mole fraction) (in n-propanol, 283.15 K): 0.00015
- solubility (mole fraction) (in n-propanol, 288.15 K): 0.000207
- solubility (mole fraction) (in n-propanol, 293.15 K): 0.000302
- solubility (mole fraction) (in n-propanol, 298.15 K): 0.000388
- solubility (mole fraction) (in n-propanol, 303.15 K): 0.000466
- solubility (mole fraction) (in n-propanol, 308.15 K): 0.000553
- solubility (mole fraction) (in n-propanol, 313.15 K): 0.000659
- solubility (mole fraction) (in n-propanol, 318.15 K): 0.000774
- solubility (mole fraction) (in n-propanol, 323.15 K): 0.000945
- solubility (mole fraction) (in water, 283.15 K): 0.0256
- solubility (mole fraction) (in water, 288.15 K): 0.0259
- solubility (mole fraction) (in water, 293.15 K): 0.0261
- solubility (mole fraction) (in water, 298.15 K): 0.0266
- solubility (mole fraction) (in water, 303.15 K): 0.0269
- solubility (mole fraction) (in water, 308.15 K): 0.0273
- solubility (mole fraction) (in water, 313.15 K): 0.0276
- solubility (mole fraction) (in water, 318.15 K): 0.0282
- solubility (mole fraction) (in water, 323.15 K): 0.0291
